Source: patent US12391701B2, “Chromene-based compounds, methods and uses thereof” (University of Minho, priority 2019, dated 2025)

Test system: C57BI/6 mice
Experiment: Toxicity in C57BI/6 mice, 1st trial
Assay type: in vivo
Protocol: In an embodiment, the safety profiles of the compounds were evaluated in rodents. […] FIG. 13A is a schematic representation of the experiment timeline. 5-month old female and male animals were used (n=3/group/gender) and injected either with MC408 3 mg/Kg or vehicle (saline, Tween80 and methylcellulose) (i.p.) daily for 7 days. A battery of welfare tests was performed daily. […] The activity was measured in a viewing jar and the number of vertical movements were counted for 5 minutes. […] The activity was recorded in an open arena labelled with squares and the number of squares were counted while the animals were freely exploring for 1 minute. […] In FIGS. 13G and H, water and food intake were analysed respectively. Each day, […] of food and 200 mL of water were placed in each cage. […] Data is presented as mean±SE.
In an embodiment, C57/BI6 female and male mice (n=3/group/gender) were intraperitoneally injected with MC408 (3 mg/Kg) or vehicle (saline, Tween80 and methylcellulose) daily, for 7 days to determine toxicity of the compounds in mice model. A battery of tests to assess mice welfare were performed daily. Immediately after the first drug administration, animals were videotaped and the immediate effects of MC408 were recorded. The number of vertical movements and the immobility time were recorded. Water and food intake were evaluated during the 7 days of the experiment, by adding a fixed amount of food and water in the animal's home cage in the 1st day and measuring the remaining amount at day 7. Body weight was assessed every day in a dynamic mouse scale. Horizontal and vertical activity was analysed to evaluate animals' intrinsic exploratory behavior; these were measured in an open arena with labelled squares for 1 minute and in a viewing jar for 5 minutes, respectively. Furthermore, the number of bolus faecalis were also counted while animals were performing the daily behavior assessment protocols, as a measure of anxiety. A battery of tests more related to animal welfare was applied by the experimenter, including measurements of: (i) body position and curvature; (ii) spontaneous activity; (iii) respiratory rate; (iv) eyelid opening and reflexes; (v) skin picking to analyse dehydration; (vi) grooming; (vii) fur erection; (viii) tremors; (ix) limb clasping and (x) reaction to transfer. At day 7, the animals were euthanized. All animals were deeply anesthetized (ketamine hydrochloride (150 mg/kg) and medetomidine (0.3 mg/kg)) and transcardially perfused with a saline solution (NaCl 0.9% (wt/v)). Blood was collected from the cava vein, centrifuged for 10 minutes at 13.000 rpm and the plasma was transferred to a new tube and stored at −80° C. until further processing for enzymatic liver function measurements using standard techniques. The organs (kidney, intestine, stomach, brain, liver, ovary/testis) were harvested and placed in tubes containing 4% paraformaldehyde and further processed for paraffin embedding and pathology analysis.

COc1cccc2c1Oc1nc(-c3ccc(Br)cc3)[nH]c1C2 [MC408, 2-(4-bromophenyl)-5-methoxy-3,9-dihydrochromeno[2,3-d]imidazoles]
exploratory activities (vertical and horizontal) (3 mg/Kg i.p. daily for 7 days): No differences were found
number of bolus faecalis (indirect measure of anxiety) (3 mg/Kg i.p. daily for 7 days): no differences were observed
body weight (3 mg/Kg i.p. daily for 7 days, 1st trial): no differences were found
water and food intake (3 mg/Kg i.p. daily, measured at day 7): no differences were found
battery of welfare tests (3 mg/Kg i.p. daily, vs vehicle): no impact
immobility time and vertical movement (REARS) immediately after first injection (3 mg/Kg i.p., 10 min, vs vehicle): No differences were found
serum AST and ALT (enzymatic liver function) (day 7, females and males, vs vehicle): No statistical differences
